From patent US9513294B2, “Megastokes amino-triazolyl-BODIPY compounds and applications to live neuron staining and human serum albumin FA1 drug site probing” (National University of Singapore, priority 2012, dated 2016)
Each block holds one compound with its values, some of them ahead of it.

Experiments:
[1] = Absorbance and fluorescence emission spectra (SpectraMax M2); type: physicochemical; settings: for λmax Abs. (nm) / λmax Em. (nm): MKAC compound library; for λmax Abs. (nm) / λmax Absorp. (nm): absorbance maximum; for λmax Em. (nm) / λmax Emission (nm): fluorescence emission maximum; for λmax Absorp. (nm) / λmax Emission (nm): MKCA compound library
Procedure, shortened: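 Spectroscopic data, including quantum yields, were recorded with a SpectraMax M2 instrument and analysed in GraphPrism.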

[2] = Quantum yield measurements versus Acridine Yellow in EtOH; type: physicochemical; settings: for φ (quantum yield): excitation 460 nm; for φ (%): quantum yield
Procedure, shortened: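 Emission areas integrated over 510–700 nm were compared with Acridine Yellow in ethanol (Φ=0.47), all excited at 460 nm. The comparative equation was normalized to excitation-wavelength absorbance and solvent refractive index.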

- λmax Absorp. ([1]; BDCCA library, Table 4): 464 nm
- λmax Emission ([1]; BDCCA library, Table 4): 548 nm
- φ (quantum yield) ([2]; BDCCA library, Table 4): 1.7%
SMILES: CCCCCc1ccc(-c2cn(-c3ccc4n3[B-](F)(F)[N+]3=C(N5CCCCC5)C=CC3=C4c3ccc(NC(=O)CCl)cc3)nn2)cc1 [BDCCA-29]

- λmax Absorp. ([1]; BDCAC library, Table 3): 467 nm
- λmax Emission ([1]; BDCAC library, Table 3): 580 nm
- φ (quantum yield) ([2]; BDCAC library, Table 3): 0.9%
SMILES: CC(=O)Nc1ccc(C2=C3C=CC(N4CCCCC4)=[N+]3[B-](F)(F)n3c2ccc3-n2cc(CCc3ccccc3)nn2)cc1 [BDCAC-19]

- λmax Abs. (nm) [1]: 465 nm
- λmax Em. (nm) [1]: 561 nm
- φ (%) ([2]; MKAC compound library): 16.50%
SMILES: CCCCCC(O)c1cn(-c2ccc3n2[B-](F)(F)[N+]2=C(NCc4cc(OC)ccc4OC)C=CC2=C3c2ccc(NC(C)=O)cc2)nn1 (racemic) [MKAC181-69]

- λmax Absorp. ([1]; MK library, Table 5): 480 nm
- λmax Emission ([1]; MK library, Table 5): 590 nm
- φ (quantum yield) ([2]; MK library, Table 5): 0.12%
SMILES: Nc1ccc(C2=C3C=CC(N4CCc5ccccc5C4)=[N+]3[B-](F)(F)n3c2ccc3-n2cc(CC3CCCCC3)nn2)cc1 [MK66-8]

- λmax Absorp. ([1]; MK library, Table 5): 475 nm
- λmax Emission ([1]; MK library, Table 5): 563 nm
- φ (quantum yield) ([2]; MK library, Table 5): 0.43%
SMILES: COc1ccc(OC)c(CNC2=[N+]3C(=C(c4ccc(N)cc4)c4ccc(-n5cc(C6CCCC6)nn5)n4[B-]3(F)F)C=C2)c1 [MK181-5]

- λmax Absorp. ([1]; MK library, Table 5): 475 nm
- λmax Emission ([1]; MK library, Table 5): 565 nm
- φ (quantum yield) ([2]; MK library, Table 5): 0.58%
SMILES: Cc1ccccc1CNC1=[N+]2C(=C(c3ccc(N)cc3)c3ccc(-n4cc(C5CCCC5)nn4)n3[B-]2(F)F)C=C1 [MK101-5]

- λmax Abs. (nm) [1]: 462 nm
- λmax Em. (nm) [1]: 568 nm
- φ (%) ([2]; MKAC compound library): 1.17%
SMILES: CC(=O)Nc1ccc(C2=C3C=CC(N4CCCC4)=[N+]3[B-](F)(F)n3c2ccc3-n2cc(CC3CCCCC3)nn2)cc1 [MKAC215-8]

- λmax Absorp. ([1]; BDCAC library, Table 3): 467 nm
- λmax Emission ([1]; BDCAC library, Table 3): 562 nm
- φ (quantum yield) ([2]; BDCAC library, Table 3): 1.4%
SMILES: CCCCCCc1cn(-c2ccc3n2[B-](F)(F)[N+]2=C(N4CCCCC4)C=CC2=C3c2ccc(NC(C)=O)cc2)nn1 [BDCAC-47]

- λmax Abs. (nm) [1]: 469 nm
- λmax Em. (nm) [1]: 580 nm
- φ (%) ([2]; MKAC compound library): 2.56%
SMILES: CC(=O)Nc1ccc(C2=C3C=CC(N4CCc5ccccc5C4)=[N+]3[B-](F)(F)n3c2ccc3-n2cc(C3CC3)nn2)cc1 [MKAC66-4]

- λmax Absorp. ([1]; BDCAC library, Table 3): 467 nm
- λmax Emission ([1]; BDCAC library, Table 3): 619 nm
- φ (quantum yield) ([2]; BDCAC library, Table 3): 0.1%
SMILES: CC(=O)Nc1ccc(C2=C3C=CC(N4CCCCC4)=[N+]3[B-](F)(F)n3c2ccc3-n2cc(-c3ccc(N(C)C)cc3)nn2)cc1 [BDCAC-13]

- λmax Absorp. ([1]; BDCCA library, Table 4): 467 nm
- λmax Emission ([1]; BDCCA library, Table 4): 584 nm
- φ (quantum yield) ([2]; BDCCA library, Table 4): 0.5%
SMILES: CC(C)CCc1cn(-c2ccc3n2[B-](F)(F)[N+]2=C(N4CCCCC4)C=CC2=C3c2ccc(NC(=O)CCl)cc2)nn1 [BDCCA-36]

- λmax Absorp. (nm) [1]: 469 nm
- λmax Emission (nm) [1]: 582 nm
- φ (%) ([2]; MKCA compound library): 3.05%
SMILES: O=C(CCl)Nc1ccc(C2=C3C=CC(N4CCc5ccccc5C4)=[N+]3[B-](F)(F)n3c2ccc3-n2cc(CC3CCCCC3)nn2)cc1 [MKCA66-8]

- λmax Abs. (nm) [1]: 467 nm
- λmax Em. (nm) [1]: 562 nm
- φ (%) ([2]; MKAC compound library): 24.16%
SMILES: CC(=O)Nc1ccc(C2=C3C=CC(NCc4cc(F)cc(F)c4)=[N+]3[B-](F)(F)n3c2ccc3-n2cc(CCc3ccccc3)nn2)cc1 [MKAC412-19]

- λmax Absorp. ([1]; MK library, Table 5): 473 nm
- λmax Emission ([1]; MK library, Table 5): 563 nm
- φ (quantum yield) ([2]; MK library, Table 5): 0.50%
SMILES: CCCc1cn(-c2ccc3n2[B-](F)(F)[N+]2=C(NCc4cc(OC)ccc4OC)C=CC2=C3c2ccc(N)cc2)nn1 [MK181-48]

- λmax Abs. (nm) [1]: 465 nm
- λmax Em. (nm) [1]: 561 nm
- φ (%) ([2]; MKAC compound library): 11.03%
SMILES: CCCc1cn(-c2ccc3n2[B-](F)(F)[N+]2=C(NCc4cc(OC)ccc4OC)C=CC2=C3c2ccc(NC(C)=O)cc2)nn1 [MKAC181-48]

- λmax Abs. (nm) [1]: 470 nm
- λmax Em. (nm) [1]: 583 nm
- φ (%) ([2]; MKAC compound library): 1.96%
SMILES: CC(=O)Nc1ccc(C2=C3C=CC(N4CCc5ccccc5C4)=[N+]3[B-](F)(F)n3c2ccc3-n2cc(C3CCCC3)nn2)cc1 [MKAC66-5]

- λmax Absorp. (nm) [1]: 465 nm
- λmax Emission (nm) [1]: 562 nm
- φ (%) ([2]; MKCA compound library): 20.56%
SMILES: COc1ccc(OC)c(CNC2=[N+]3C(=C(c4ccc(NC(=O)CCl)cc4)c4ccc(-n5cc(CC6CCCCC6)nn5)n4[B-]3(F)F)C=C2)c1 [MKCA181-8]

- λmax Absorp. ([1]; BDC library, Table 2): 475 nm
- λmax Emission ([1]; BDC library, Table 2): 583 nm
- φ (quantum yield) ([2]; BDC library, Table 2): 0.13%
SMILES: CCCCCCCCc1cn(-c2ccc3n2[B-](F)(F)[N+]2=C(N4CCCCC4)C=CC2=C3c2ccc(N)cc2)nn1 [BDC-44]

- λmax Absorp. ([1]; MK library, Table 5): 477 nm
- λmax Emission ([1]; MK library, Table 5): 578 nm
- φ (quantum yield) ([2]; MK library, Table 5): 0.34%
SMILES: CC1CN(C2=[N+]3C(=C(c4ccc(N)cc4)c4ccc(-n5cc(CCc6ccccc6)nn5)n4[B-]3(F)F)C=C2)CC(C)O1 (stereo not drawn) [MK20-19]

- λmax Abs. (nm) [1]: 467 nm
- λmax Em. (nm) [1]: 560 nm
- φ (%) ([2]; MKAC compound library): 3.467%
SMILES: CCCCCC(O)c1cn(-c2ccc3n2[B-](F)(F)[N+]2=C(N(C)Cc4ccccc4)C=CC2=C3c2ccc(NC(C)=O)cc2)nn1 (racemic) [MKAC195-69]

- λmax Absorp. (nm) [1]: 464 nm
- λmax Emission (nm) [1]: 563 nm
- φ (%) ([2]; MKCA compound library): 36.82%
SMILES: CCOc1ccccc1CNC1=[N+]2C(=C(c3ccc(NC(=O)CCl)cc3)c3ccc(-n4cc(CCc5ccccc5)nn4)n3[B-]2(F)F)C=C1 [MKCA103-19]

- λmax Absorp. ([1]; BDCAC library, Table 3): 465 nm
- λmax Emission ([1]; BDCAC library, Table 3): 561 nm
- φ (quantum yield) ([2]; BDCAC library, Table 3): 1.6%
SMILES: CCCCCc1ccc(-c2cn(-c3ccc4n3[B-](F)(F)[N+]3=C(N5CCCCC5)C=CC3=C4c3ccc(NC(C)=O)cc3)nn2)cc1 [BDCAC-29]

- λmax Absorp. ([1]; BDC library, Table 2): 469 nm
- λmax Emission ([1]; BDC library, Table 2): 587 nm
- φ (quantum yield) ([2]; BDC library, Table 2): 0.13%
SMILES: CN(C)Cc1cn(-c2ccc3n2[B-](F)(F)[N+]2=C(N4CCCCC4)C=CC2=C3c2ccc(N)cc2)nn1 [BDC-2]

- λmax Absorp. ([1]; BDCCA library, Table 4): 466 nm
- λmax Emission ([1]; BDCCA library, Table 4): 582 nm
- φ (quantum yield) ([2]; BDCCA library, Table 4): 0.7%
SMILES: CCCCCCCCc1cn(-c2ccc3n2[B-](F)(F)[N+]2=C(N4CCCCC4)C=CC2=C3c2ccc(NC(=O)CCl)cc2)nn1 [BDCCA-44]

- λmax Absorp. ([1]; BDCCA library, Table 4): 468 nm
- λmax Emission ([1]; BDCCA library, Table 4): 590 nm
- φ (quantum yield) ([2]; BDCCA library, Table 4): 0.9%
SMILES: O=C(CCl)Nc1ccc(C2=C3C=CC(N4CCCCC4)=[N+]3[B-](F)(F)n3c2ccc3-n2cc(CC3CCCC3)nn2)cc1 [BDCCA-7]

- λmax Absorp. ([1]; BDCCA library, Table 4): 467 nm
- λmax Emission ([1]; BDCCA library, Table 4): 627 nm
- φ (quantum yield) ([2]; BDCCA library, Table 4): 0.1%
SMILES: CN(C)c1ccc(-c2cn(-c3ccc4n3[B-](F)(F)[N+]3=C(N5CCCCC5)C=CC3=C4c3ccc(NC(=O)CCl)cc3)nn2)cc1 [BDCCA-13]

- λmax Absorp. (nm) [1]: 462 nm
- λmax Emission (nm) [1]: 565 nm
- φ (%) ([2]; MKCA compound library): 4.60%
SMILES: CCCc1cn(-c2ccc3n2[B-](F)(F)[N+]2=C(N4CCCC4)C=CC2=C3c2ccc(NC(=O)CCl)cc2)nn1 [MKCA215-48]

- λmax Absorp. (nm) [1]: 467 nm
- λmax Emission (nm) [1]: 586 nm
- φ (%) ([2]; MKCA compound library): 6.77%
SMILES: CN(Cc1ccccc1)C1=[N+]2C(=C(c3ccc(NC(=O)CCl)cc3)c3ccc(-n4cc(CCc5ccccc5)nn4)n3[B-]2(F)F)C=C1 [MKCA195-19]

- λmax Abs. (nm) [1]: 469 nm
- λmax Em. (nm) [1]: 590 nm
- φ (%) ([2]; MKAC compound library): 2.23%
SMILES: CCCCCC(O)c1cn(-c2ccc3n2[B-](F)(F)[N+]2=C(N4CC(C)OC(C)C4)C=CC2=C3c2ccc(NC(C)=O)cc2)nn1 (stereo not drawn) [MKAC20-69]

- λmax Absorp. ([1]; MK library, Table 5): 476 nm
- λmax Emission ([1]; MK library, Table 5): 584 nm
- φ (quantum yield) ([2]; MK library, Table 5): 0.32%
SMILES: CCCc1cn(-c2ccc3n2[B-](F)(F)[N+]2=C(N(C)Cc4ccccc4)C=CC2=C3c2ccc(N)cc2)nn1 [MK195-48]
